Test results: patent US6936610B2, “Heterocyclic derivatives” (AstraZeneca UK Limited, priority 1996, dated 2005)
Where a name gives a salt, the structure may show the parent alone.

| SMILES | melting point [°C] |
| --- | --- |
| O=C(c1ccc(-c2ccncc2)cc1)N1CCN(S(=O)(=O)c2ccc3cc(Cl)ccc3c2)CC1 (as salt: trifluoroacetate) [Example 7, 1-(6-chloronaphth-2-ylsulphonyl)4-[4-(4-pyridyl)benzoyl]piperazine] | 175 to 176 |
| Cc1cc(-c2ccc(C(=O)N3CCN(S(=O)(=O)c4ccc5cc(Br)ccc5c4)CC3)cc2)ccn1 [Example 8, 1-(6-bromonaphth-2-ylsulphonyl)-4-[4-(2-methyl-4-pyridyl)benzoyl]piperazine] | 204 to 205 |
| O=C(c1ccc(-c2ccnnc2)cc1)N1CCN(S(=O)(=O)c2ccc3cc(Br)ccc3c2)CC1 [Example 9, 1-(6-bromonaphth-2-ylsulphonyl)4-[4-(4-pyridazinyl)benzoyl]piperazine] | 128 to 130 |
